According to patent US20190029252A1, “Use of Herbicide-tolerant Protein” (BEIJING DABEINONG TECHNOLOGY GROUP CO., LTD., priority 2016, published 2019):

How the values were obtained:
Type in all cases: in vivo
[1] = tested on: Zm chloroplastic ALT-3-02 maize plants; test: Tribenuron-methyl tolerance of maize plants, damage degree after spraying; conditions: 72 g ai/ha (4-fold field concentration)
Method: (§1) The damage degree caused by the herbicide was measured for each plant according to the plant growth status 3 days after spraying (3 DAT), 7 days after spraying (7 DAT), 14 days after spraying (14 DAT) and 21 days after spraying (21 DAT), respectively: considering a growth status equivalent to that of the untreated plants as having a damage degree of 0%; considering conditions of leaves being partially chlorotic and yellow but substantially not affecting the plant normal growth as having a damage degree of 50%; and considering the whole plant being purple and dying as having a damage degree of 100%. There were 2 strains in Zm cytoplasmic ALT-1-02 maize plants in total (S13 and S14), 2 strains in Zm chloroplastic ALT-1-02 maize plants in total (S15 and S16), 2 strains in Zm cytoplasmic ALT-2-02 maize plants in total (S17 and S18), 2 strains in Zm chloroplastic ALT-2-02 maize plants in total (S19 and S20), 2 strains in Zm cytoplasmic ALT-3-02 maize plants in total (S21 and S22), 2 strains in Zm chloroplastic ALT-3-02 maize plants in total (S23 and S24), and 1 strain in wild-type maize plants (CK2) in total; and 10-15 plants were selected from each strain and tested.

[2] = tested on: Zm cytoplasmic ALT-1-02 maize plants; test: as above; conditions: 72 g ai/ha (4-fold field concentration)
Method: as §1

[3] = tested on: Zm cytoplasmic ALT-3-02 maize plants; test: as above; conditions: 72 g ai/ha (4-fold field concentration)
Method: as §1

[4] = tested on: wild-type maize plants (CK2); test: as above
Method: as §1

[5] = tested on: transformed Arabidopsis thaliana T1 plants (ALT-1, ALT-2 and ALT-3); test: Herbicide tolerance of transgenic Arabidopsis thaliana T1 plants, overall conclusion; conditions: transgenic Arabidopsis thaliana T1 plants; 18 g ai/ha
Description: (§2) Plants were counted for the resistance situations 14 days after spraying: those having a consistent growth status with the blank solvent (water) group after 14 days were classified as highly resistant plants, those having a bolting height less than ½ of that of the blank solvent (water) group after 14 days were classified as moderately resistant plants, those still not capable of bolting after 14 days were classified as poorly resistant plants, and those dead after 14 days were classified as non-resistant plants. Since each Arabidopsis thaliana T1 plant was an independent transformation event, a significant difference in individual T1 responses could be expected at a given dose.
as §2, with “situation” for “situations”

[6] = maize strain S23 (Zm chloroplastic ALT-3-02)
[7] = maize strain S24 (Zm chloroplastic ALT-3-02)
[8] = maize strain S13 (Zm cytoplasmic ALT-1-02)
[9] = maize strain S14 (Zm cytoplasmic ALT-1-02)
[10] = maize strain S21 (Zm cytoplasmic ALT-3-02)
[11] = maize strain S22 (Zm cytoplasmic ALT-3-02)
[12] = maize strain CK2 (wild-type), 72 g ai/ha (4-fold field concentration)

## COC(=O)c1ccccc1S(=O)(=O)NC(=O)N(C)c1nc(C)nc(OC)n1 [tribenuron-methyl, methyl 2-[N-(4-methoxy-6-methyl-1,3,5-triazin-2-yl)-N-methylaminoformamidosulfonyl]benzoate]
[1]; [6]
  Average damage % 3DAT: 0%
  Average damage % 7DAT: 0%
  Average damage % 14DAT: 0%
  Average damage % 21DAT: 0%
[1]; [7]
  Average damage % 3DAT: 0%
  Average damage % 7DAT: 0%
  Average damage % 14DAT: 0%
  Average damage % 21DAT: 0%
[2]; [8]
  Average damage % 3DAT: 4%
  Average damage % 7DAT: 0%
  Average damage % 14DAT: 0%
  Average damage % 21DAT: 0%
[2]; [9]
  Average damage % 3DAT: 5%
  Average damage % 7DAT: 0%
  Average damage % 14DAT: 0%
  Average damage % 21DAT: 0%
[3]; [10]
  Average damage % 3DAT: 3%
  Average damage % 7DAT: 0%
  Average damage % 14DAT: 0%
  Average damage % 21DAT: 0%
[3]; [11]
  Average damage % 3DAT: 5%
  Average damage % 7DAT: 0%
  Average damage % 14DAT: 0%
  Average damage % 21DAT: 0%
[4]; [12]
  Average damage % 7DAT: 86%
  Average damage % 14DAT: 100%
  Average damage % 21DAT: 100%
[4]; wild-type maize plants, 72 g ai/ha
  herbicide tolerance (in words): not tolerant
[5]
  herbicide tolerance conferred by thifensulfuron hydrolase (in words): conferred tribenuron-methyl herbicide tolerance
